From patent publication US10259843B2, “Cyclic tetrapeptide stereoisomers” (University of Kansas, priority 2014, dated 2019)
“Also recorded” adds a separate entry of the source. Where two headings read alike, the source gives them in different places. Non-standard residues stand in square brackets, D forms with d. Residues, ends and D or L forms follow the SMILES beside them.

What was measured:
[1] = biological target: delta opioid receptor (DOR) (Homo sapiens, UniProt P41143); assay: radioligand binding assay, delta opioid receptor affinity; conditions: for Ki: n in parentheses, read-out: Ki (nM ± SEM) DOR
Experimental: (§1) The peptides of Table 1 shown below in Tables 3 and 4 were evaluated in radioligand binding assays for mu, kappa and delta opioid receptor affinities in vitro, and in the mouse 55° C. warm water tail withdrawal assay in vivo for antinociception and opioid antagonist activity.

[2] = biological target: mu opioid receptor (MOR) (Homo sapiens, UniProt P35372); assay: radioligand binding assay, mu opioid receptor affinity
Experimental: as §1

[3] = stress-induced reinstatement of cocaine seeking behavior, conditioned place preference assay; conditions: in vivo
Description: In interesting comparison to the other cyclic tetrapeptides, compound 3613 (DDDD) is a mu opioid receptor (MOR) agonist and delta opioid receptor (DOR) antagonist. MOR agonists/DOR antagonists are of great interest because of their decreased liability profile (decreased addiction potential and liability profile such as tolerance) compared to MOR agonists like morphine.

[4] = system: opioid receptors (KOR, MOR, DOR); assay: mouse 55° C. warm water tail withdrawal assay, opioid antagonist activity; assay type: in vivo; conditions: for Antagonism (opioid receptor antagonised in vivo): dose not given
Experimental: as §1

[5] = mouse 55° C. warm water tail withdrawal assay, antinociception; assay type: in vivo; conditions: for ED50 (95% CI) i.c.v. / ED50 (95% CI) p.o.: antinociception; for Receptors involved: opioid receptors contributing to antinociception
Experimental: as §1

[6] = rotorod test for sedation and motor coordination; assay type: in vivo; design: key: ✓ indicates tested (if no other comment then no significant effect); conditions: 10 mg/kg, p.o.
[7] = respiratory depression; assay type: in vivo; design: key: ✓ indicates tested (if no other comment then no significant effect)
[8] = biological target: kappa opioid receptor (KOR) (Homo sapiens, UniProt P41145); assay: radioligand binding assay, kappa opioid receptor affinity
Experimental: as §1

[9] = locomotion (CLAMS); assay type: in vivo; design: key: ✓ indicates tested (if no other comment then no significant effect); conditions: 10 mg/kg, p.o.
[10] = nerve constriction assay for neuropathic pain; assay type: in vivo, rodent
Experimental: In the nerve constriction assay, a nerve of a subject rodent is chronically constricted or cuffed and then the animal is assessed for response to pain stimuli such a paw withdrawal. […] Gabapentin is an accepted treatment for neuropathic pain.

[11] = other pain models (formalin, acetic acid stretching, nerve constriction; FIGS. 1-3B); conditions: in vivo
Description: These models are based on the formalin assay, the acetic acid stretching assay, and the nerve constriction assay. The formalin and acetic acid stretching assays are indicative of activity against inflammatory pain (i.e., nociceptive pain) and the nerve constriction assay is indicative of activity against neuropathic pain.

[12] = acute tolerance model; conditions: in vivo
[13] = conditioned place response assay; conditions: oral administration of the peptides
[14] = acetic acid stretching assay; assay type: in vivo; conditions: 10 mg/kg and 30 mg/kg
Experimental: The acetic acid stretching assay is a model for visceral pain and is the most popular chemical assay of nociception. In the assay, subjects are given a subcutaneous (s.c.) injection of drug or vehicle 60 min before an intraperitoneal (i.p.) injection of 0.6% acetic acid. After administration of the acetic acid, the subjects are placed in clear cages (11×7×5 in) and scored for abdominal stretches during a 20 min observation period. Stretching was defined as body contortions, belly pressing, and extension of the hind limbs from which visceral nociception was inferred. […] And while the effect of 3607 was not as pronounced as with morphine, the observed reductions in stretching were significant, indication that 3607 has a significant pain reduction effect.

[15] = formalin assay; assay type: in vivo, rodent; conditions: 10 mg/kg oral, vs saline i.p.
Experimental: It entails the injection of a dilute solution of formalin into the surface of the rodent's hindpaw, followed by the scoring of stereotypical behaviors such as flinching, licking, and biting of the affected hindpaw. The behaviors last for approximately 1 hour, with the early or acute stage (directly after injection) reflecting direct activation of nociceptors and the late or tonic phase (15 to 20 minutes after the injection) reflecting inflammation.

[16] = n in parentheses, read-out: Ki (nM ± SEM) MOR
[17] = n in parentheses, read-out: Ki (nM ± SEM) KOR
[18] = 10 mg/kg p.o., compared to 50 mg/kg i.p. gabapentin and 2801

Sequence of kappa opioid receptor (KOR) (P41145 whole entry): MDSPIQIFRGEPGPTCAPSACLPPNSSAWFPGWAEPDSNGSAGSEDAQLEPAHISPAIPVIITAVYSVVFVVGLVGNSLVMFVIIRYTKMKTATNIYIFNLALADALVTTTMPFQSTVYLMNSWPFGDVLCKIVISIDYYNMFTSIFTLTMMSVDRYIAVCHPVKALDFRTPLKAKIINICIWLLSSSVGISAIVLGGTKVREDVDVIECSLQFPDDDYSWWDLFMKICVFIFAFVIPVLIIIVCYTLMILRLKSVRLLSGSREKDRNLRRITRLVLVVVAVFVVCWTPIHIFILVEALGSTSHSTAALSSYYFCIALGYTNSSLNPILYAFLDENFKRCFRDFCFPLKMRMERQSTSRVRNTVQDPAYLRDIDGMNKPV
Sequence of delta opioid receptor (DOR) (P41143 whole entry): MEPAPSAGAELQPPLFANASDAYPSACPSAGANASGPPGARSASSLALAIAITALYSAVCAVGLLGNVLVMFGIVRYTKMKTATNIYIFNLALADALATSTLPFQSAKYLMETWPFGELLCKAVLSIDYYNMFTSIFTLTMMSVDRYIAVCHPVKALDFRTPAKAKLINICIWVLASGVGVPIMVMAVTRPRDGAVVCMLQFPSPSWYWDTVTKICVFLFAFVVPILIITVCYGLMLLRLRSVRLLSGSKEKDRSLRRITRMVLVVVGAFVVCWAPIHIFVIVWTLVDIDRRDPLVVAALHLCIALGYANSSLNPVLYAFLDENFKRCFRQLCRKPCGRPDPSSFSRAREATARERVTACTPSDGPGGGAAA
Sequence of mu opioid receptor (MOR) (P35372 whole entry): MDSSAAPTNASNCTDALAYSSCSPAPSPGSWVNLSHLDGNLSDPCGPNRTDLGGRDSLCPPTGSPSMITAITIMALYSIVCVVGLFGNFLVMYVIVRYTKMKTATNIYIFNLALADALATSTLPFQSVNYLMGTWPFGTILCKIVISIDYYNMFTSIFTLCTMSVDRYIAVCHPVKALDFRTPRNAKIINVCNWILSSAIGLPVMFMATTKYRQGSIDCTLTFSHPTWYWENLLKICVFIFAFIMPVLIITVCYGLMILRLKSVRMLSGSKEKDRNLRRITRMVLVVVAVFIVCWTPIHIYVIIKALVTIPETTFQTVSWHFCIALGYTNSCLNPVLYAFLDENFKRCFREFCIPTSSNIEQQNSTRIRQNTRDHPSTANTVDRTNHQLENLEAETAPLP

Compound | Ki [1] [nM] | Ki [2, 16] [nM] | Antagonism (dose, nmol) ([4]; 30 nmol) | Antagonism (opioid receptor antagonised in vivo) [4] | ED50 (95% CI) i.c.v. [5] [nmol] | ED50 (95% CI) p.o. [5] [mg/kg] | Receptors involved [5] | Rotorod (10 mg/kg, p.o.) [6] | Respiratory depression 10 mg/kg p.o. [7] | Ki [8, 17] [nM] | Locomotion (CLAMS, 10 mg/kg, p.o.) [9] | Antagonism (dose, nmol) ([4]; 100 nmol) | relief of neuropathic pain [10, 18] | analgesic activity in other pain models [11] | Acute Tolerance ED50 shift [12] [fold] | conditioned place preference (drug seeking behavior) or conditioned place aversion [13] | also measured
O=C1N[C@H](Cc2ccccc2)C(=O)N[C@H](Cc2c[nH]c3ccccc23)C(=O)N[C@H](Cc2ccccc2)C(=O)N2CCC[C@H]12 [JVA 3613, cyclo[D-Phe-D-Pro-D-Phe-D-Trp]] (cyclo([dF][dP][dF][dW])) | > 10000 | > 10000 | DOR (30) | exhibit DOR antagonist activity | 0.51 | 2.47 | kappa opioid receptors (KOR) are not involved; also recorded: DOR, MOR | ✓ | ✓ | 2010 ± 270 | ✓ | – | – | – | – | – | prevention of stress-induced reinstatement of cocaine seeking behavior [3]: effective in preventing stress-induced reinstatement of cocaine seeking behavior
O=C1N[C@H](Cc2ccccc2)C(=O)N[C@H](Cc2c[nH]c3ccccc23)C(=O)N[C@@H](Cc2ccccc2)C(=O)N2CCC[C@H]12 [JVA 3608, cyclo[Phe-D-Pro-D-Phe-D-Trp]] (cyclo(F[dP][dF][dW])) | > 10000 | 5800 ± 1450 | – | exhibit DOR antagonist activity | 0.56 | 4.72 | KOR, MOR, and DOR | ✓ | evidence of respiratory depression; also recorded: Resp | 353 ± 19 | Sig. hypo- | DOR (100) | significant relief of neuropathic pain | significant analgesic properties | 9.87 | – | affinity for DOR [1]: negligible affinity; Ki ([2]; read-out: Ki MOR): > 1000 nM; analgesic activity in other pain models ([11]; listed as 3708): show activity against pain; Ki ([8]; read-out: Ki KOR): < 1000 nM
O=C1N[C@H](Cc2ccccc2)C(=O)N2CCC[C@@H]2C(=O)N[C@H](Cc2ccccc2)C(=O)N[C@H]1Cc1c[nH]c2ccccc12 [JVA 3607, cyclo-[D-Phe-D-Pro-D-Phe-Trp]] (cyclo([dF][dP][dF]W)) | > 10000 | 7780 ± 410 | None (30) | – | 1.00 | 4.12 | mu opioid receptors (MOR) are not involved; also recorded: KOR, DOR | ✓ | ✓ | 2560 ± 480 | ✓ | – | – | significant analgesic properties; also recorded: show activity against pain | 5.19 | no evidence of inducing drug seeking behavior; also recorded: do not show evidence of conditioned place preference (drug seeking behavior) or conditioned place aversion | relief of neuropathic pain ([10]; 3 mg/kg, 10 mg/kg, and 30 mg/kg, compared to 50 mg/kg gabapentin): significant relief of neuropathic pain; antinociception (abdominal stretches) [14]: significant antinociception; time spent licking after formalin administration [15]: significant reduction
O=C1N[C@H](Cc2ccccc2)C(=O)N2CCC[C@@H]2C(=O)N[C@@H](Cc2ccccc2)C(=O)N[C@H]1Cc1c[nH]c2ccccc12 [JVA 3605, cyclo[D-Phe-D- Pro-Phe-Trp]] (cyclo([dF][dP]FW)) | > 10000 | > 10000 | KOR (30), | exhibits KOR antagonist activity; also recorded: exhibit DOR antagonist activity | 0.75 | 7.62 | KOR, MOR, and DOR | effects similar to the KOR selective agonist U50,488, suggesting sedation; also recorded: ✓ (sig | evidence of respiratory depression; also recorded: Sig. resp | 5120 ± 690 | ✓ | DOR (100) | significant relief of neuropathic pain | significant analgesic properties; also recorded: show activity against pain | – | no evidence of inducing drug seeking behavior; also recorded: do not show evidence of conditioned place preference (drug seeking behavior) or conditioned place aversion | –
